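Tested at 5 concentrations; 48 h exposure; 96-well plates; endpoints linearly interpolated, else capped at highest concentration. The concentration for 50% growth inhibition is given as GI50. TGI: concentration producing complete growth inhibition.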 *1 amine or outer side, *2 acyl side, *3 side chain or, on linkers, in order; H or OH if unused. Where a SMILES comes first, the peptide text is derived from it. [ ]: non-standard residue; d: D form. The star is where a group is joined. ξ: configuration not given here. X15 = CCN(CC)c1ccc2cc(N*)c(=O)oc2c1; dIva = CC[C@@](C)(N)C(=O)O; X14 = O=C(OCCN[*:1])[*:2]; Aib = CC(C)(N)C(=O)O; ξP = O=C(O)C1CCCN1; βAla = NCCC(=O)O
tested on: MDA-MB-468 breast; assay: growth of human tumour cells (NCI), 48 h

SMILES	GI50 [µM]	TGI [µM]
Nc1n[nH]c2ccc([C@@H]3Nc4ccc5[nH]ncc5c4[C@H]4C5C=CC(C5)[C@@H]34)cc12 (some centres undefined)	0.329	16
CCN(CC)c1ccc2cc(NC(=O)OCCNC(=O)CCNC(=O)[C@H](CC(C)C)NC(=O)C(C)(C)NC(=O)C(C)(C)NC(=O)[C@H](CC(C)C)NC(=O)CCNC(=O)C(C)(C)NC(=O)[C@H](CC(C)C)NC(=O)CCNC(=O)[C@@](C)(CC)NC(=O)[C@H](C)NC(=O)CCNC(=O)C(C)(C)NC(=O)[C@H](C)NC(=O)[C@@H]3CCCN3C(=O)[C@@](C)(CC)NC(=O)[C@H](Cc3ccccc3)NC(=O)C3CCCN3C(=O)C(C)(C)NC(=O)C3CCCN3C(=O)C(C)(C)NC(C)=O)c(=O)oc2c1 (some centres undefined) (Ac-[Aib][ξP][Aib][ξP]F[dIva]PA[Aib][βAla]A[dIva][βAla]L[Aib][βAla]L[Aib][Aib]L[βAla][X14]-X15)	0.00277	0.00774
O=C(N/N=C/c1cc([N+](=O)[O-])ccc1O)c1cccc2ccccc12	1.52	4.74
O=C(CCCSc1nc(-c2ccccc2)cc(-c2ccc(Cl)cc2)n1)NO	1.58	3.89
Nc1ccc(-c2ccc(N)cc2I)c(I)c1	5.93	44.9
CCCCNC(=O)NS(=O)(=O)c1ccc(N2N=C(c3cc(C)ccc3C)CC2c2cc(OC)c(OC)c(OC)c2)cc1 (centres undefined)	2.17	5.35
CN1CCN(Cc2ccc(NC(=O)c3cncc(C#Cc4cnc5ccc(OCC(F)F)nn45)c3)cc2C(F)(F)F)CC1	0.428	1.33
Cn1ccnc1C(=O)/C=C/c1ccc(CC(=O)Nc2ccc(C(F)(F)F)cc2)cc1	2.09	4.66
C=C1CCC2C3(C)COC(c4ccccc4Br)OC3CCC2(C)C1C/C=C1/C(=O)OCC1OC(C)=O (centres undefined)	1.2	2.82
CCCCCCCOc1c(OC)cc(C2CC(=O)Nc3c2c(C)nn3-c2nc3ccccc3[nH]2)cc1OC (centres undefined)	2.45	7.12
O=C(COc1cccc(/C=C2\COc3ccc(Cl)cc3C2=O)c1)c1ccc(Cl)cc1	2.82	9.26
CCCCN(CCCC)c1ccc(C(=NC(C)CCCN(CC)CC)c2ccc(N(C)C)cc2)cc1 (centres undefined)	0.795	1.67
CC(=O)O[C@H]1CC[C@@]2(C)[C@@H](CC[C@@H]3[C@@H]2CC[C@]2(C)C=C(C=O)C[C@@H]32)C1	15.5	38.2
CN(C)c1ccc(C(=C2C=CC(=[N+](C)C)C=C2)c2ccc(N(C)C)cc2)cc1	0.12	0.43
CCN(CC)c1ccc(C(=N)c2ccc(N(C)C)cc2)cc1	0.113	2.25
Nc1n[nH]c2cccc(C#Cc3cccc(C(=O)Nc4cc(CN5CCOCC5)cc(C(F)(F)F)c4)c3)c12	3.47	12.9
CC(C)c1ccc(Nc2nccc(-c3cnn4ncccc34)n2)cc1	0.271	0.833
CC1(C)CC[C@]23CC[C@]4(C)[C@H](CC[C@@H]5[C@@]6(C)CC[C@H](NCO)C(C)(C)[C@@H]6CC[C@]54C)[C@H]2[C@H]1OC3	1.85	3.71
COc1cc(C2C3=C(COC3=O)Nc3cc4c(cc32)CCC4)cc2c1OCO2 (centres undefined)	0.0281	0.147
Cc1[nH]c2ccccc2c1CCNCc1ccc(/C=C/C(=O)NO)cc1	< 0.01	0.14
OCC1OC(n2cnc3c(=S)nc[nH]c32)C(O)C1O (centres undefined)	0.631	> 100
COc1cc(C(=O)/C=C/c2cccnc2Nc2ccccc2)cc(OC)c1OC	0.665	2.1
C[C@]12CCc3sc(Nc4ccc(O)cc4)nc3C1=CC[C@@H]1[C@@H]2CC[C@]2(C)C(=O)CC[C@@H]12	2.17	5.8
CCOc1ccccc1/C=N\N=C(\N)N/N=C/c1ccccc1OCC	1.72	8.48
Nc1c(C(=O)Nc2ccccc2)sc2nc3c(cc12)CN(Cc1ccccc1)CC3	17	> 100
CS(=O)(=O)Nc1ccc(N=Cc2c(O)[nH]c3ccccc23)cc1	> 25	> 25
CCCOc1nc(SCCC)nc2c1cnn2-c1ccccc1	> 100	> 100
